According to paper PMC7997032, “Organic synthesis and anti-influenza A virus activity of cyclobakuchiols A, B, C, and D” (PLoS ONE, 2021):
Several values for one entry are separate records, joined by “and”; a condition that tells them apart may be missing. Equal entries are not always repeated.

Key:
A/WSN/33 virus [1] = assay: Immunofluorescence staining of viral NP in influenza A virus-infected MDCK cells; conditions: WSN
Description: MDCK cells were seeded on a 96-well plate at 1 × 10^4 cells/well. […] Each mixture was added to the cells at 37°C in the presence of 5% CO2. […] After influenza A viral infection for 24 h, the cells were fixed with 4% paraformaldehyde in phosphate-buffered saline (PBS) for 30 min at 4°C and subsequently permeabilized by the addition of 0.3% Triton X-100 for 20 min at 25°C. A mouse primary antibody was used to detect the NP of A/PR/8/34 or A/WSN/33 viruses (FluA-NP 4F1; SouthernBiotech, AL, USA). Alexa Fluor488-conjugated goat anti-mouse IgG (H + L) antibody (Thermo Fisher Scientific) was used as the secondary antibody. Cell nuclei were then stained using diamidino-2-phenylindole (DAPI) (Thermo Fisher Scientific). Wells were photographed using a fluorescence microscope (BIOREVO BZ-X700; Keyence, Osaka, Japan). The proportion of influenza A NP-positive cells per DAPI-positive cells was calculated based on measurements recorded using BZ-X Analyzer software (Keyence).

A/WSN/33 virus [2] = assay: Influenza A viral growth assay (viral titer of culture media); assay type: cell-based, influenza A H1N1 virus; conditions: A/WSN/33 (WSN), 12.5uM, average of #1-3 exp (n=9)
A/PR/8/34 virus [3] = assay type: cell-based; conditions: 12.5 μM, 24h WB
A/PR/8/34 virus [4] = assay: RT-qPCR of viral mRNAs (NP, NS1, PA, PB1, PB2, M2) in infected MDCK cells; assay type: cell-based, influenza A H1N1 virus
Nrf2 = Nrf2 reporter assay (dual luciferase system) in MDCK cells; assay type: cell-based, canine
Description: An Nrf2 reporter assay based on the dual luciferase system was performed as previously described. The plasmid pNQO1-ARE (antioxidant response element)-Fluc, provided by Yamamoto M., expressed a Firefly luciferase gene driven by Nrf2 activation, while the plasmid pRL-TK-Rluc vector (Promega, CA, USA) expressed a Renilla luciferase gene driven by the herpes simplex viral thymidine kinase promoter as an internal control. MDCK cells were seeded in a 24-well plate at 1 × 10^5 cells/well and transfected with pNQO1-ARE-luc (0.25 μg) and pRL-TK-Rluc (0.25 μg). At 24 h post-transfection, the cells were treated with 12.5 μM cyclobakuchiols A–D in the infection medium at 37°C under 5% CO2. DMSO (0.125%) and 12.5 μM 1 were used as negative and positive controls, respectively. Total RNA was extracted from the MDCK cell lysates after 24 h of incubation. The levels of Firefly and Renilla luciferase mRNAs were analyzed by RT-qPCR and normalized to that of β-actin mRNA.

[5] = test system: NAD(P)H quinone oxidoreductase 1 (Nqo1); assay: RT-qPCR of Nqo1 mRNA in MDCK cells with or without A/PR/8/34 virus; assay type: cell-based, canine; conditions: for NQO1 Canis lupus mRNA, ave / NQO1 Canis lupus mRNA, individual replicates: 12.5uM, MDCK, relative to virus - DMSO; for NQO1 Canis lupus mRNA, ave: ave of #1-3 exp; for NQO1 Canis lupus mRNA, individual replicates: replicates 1-3 of #1, #2, #3 exp, listed as Cyclobakuchiol B
A/PR/8/34 virus [6] = assay: Influenza A viral growth assay (viral titer of culture media); assay type: cell-based, influenza A H1N1 virus; set-up: viral titer of culture media, individual replicate / viral titer of culture media, ave: unit not given here; conditions: A/PR/8/34 (PR8), 12.5uM, average of #1-3 exp (n=9)
[7] = test system: canine interferon-β (Ifn-β); assay: RT-qPCR of Ifn-β mRNA in MDCK cells with or without A/PR/8/34 virus; assay type: cell-based; conditions: 12.5uM, relative to virus - DMSO; for MDCK IFN-b mRNA, ave: ave of #1-3 exp; for MDCK IFN-b mRNA, individual replicates: replicates 1-3 of #1, #2, #3 exp, listed as Cyclobakuchiol B
A/PR/8/34 virus [8] = assay: Immunofluorescence staining of viral NP in influenza A virus-infected MDCK cells; conditions: for NP/DAPI (%) ave: average of 9 wells
[9] = MDCK cells, PR8 virus, relative to DMSO (about 1), ave of #1-3 exp (9 values)
[10] = MDCK cells, PR8 virus, relative to DMSO, replicates 1-3 of #1, #2, #3 exp, listed as Cyclobakuchiol B

Compound: C=C[C@]1(C)CCC(C(=C)C)C(c2ccc(O)cc2)C1 (stereo in doubt) [cyclobakuchiol B]
- NP/DAPI (%) ave (A/WSN/33 virus [1]; 3.13uM, ave of 9 values (3 exp)): 30.5534%
- NP/DAPI (%) ave (A/WSN/33 virus [1]; 6.25uM, ave of 9 values (3 exp)): 28.157%
- NP/DAPI (%) ave (A/WSN/33 virus [1]; 12.5uM, ave of 9 values (3 exp)): 30.5618%
- NP/DAPI (%) ave (A/WSN/33 virus [1]; 25uM, ave of 9 values (3 exp)): 32.0683%
- NP/DAPI (%) ave (A/WSN/33 virus [1]; ave summary, 3.13%): 30.5534%
- NP/DAPI (%) ave (A/WSN/33 virus [1]; ave summary, 6.25%): 28.157%
- NP/DAPI (%) ave (A/WSN/33 virus [1]; ave summary, 12.50%): 30.5618%
- NP/DAPI (%) ave (A/WSN/33 virus [1]; ave summary, 25%): 32.0683%
- viral titer of culture media, ave (A/WSN/33 virus [2]; 12h): 12633.3
- viral titer of culture media, ave (A/WSN/33 virus [2]; 24h): 25455556
- viral titer of culture media, ave (A/WSN/33 virus [2]; 48h): 275666667
- viral titer of culture media, ave (A/WSN/33 virus [2]; 72h): 208055556
- NP/b-actin ave (A/PR/8/34 virus [3]; average of 3 experiments): 0.58
- NS1/b-actin ave (A/PR/8/34 virus [3]; average of 3 experiments): 0.5288
- NP mean (western blot signal intensity, ImageJ) (A/PR/8/34 virus [3]; single experiment): 62.433 and 67.763 and 96.513
- NP/b-actin (A/PR/8/34 virus [3]; single experiment): 0.7275 and 0.4304 and 0.582
- NS1/b-actin (A/PR/8/34 virus [3]; single experiment): 0.4321 and 0.5028 and 0.6516
- NS1 mean (western blot signal intensity, ImageJ) (A/PR/8/34 virus [3]; single experiment): 72.927 and 75.866 and 57.321
- PR8 NP gene expression qPCR, ave (A/PR/8/34 virus [4]; MDCK PR8, NP mRNA, relative (DMSO about 1), average of #1-3 exp (n=9)): 0.03219
- PR8 NP gene expression qPCR, individual replicate (A/PR/8/34 virus [4]; MDCK PR8, NP mRNA, relative (DMSO about 1), replicates of #1-3 exp, listed as Cyclobakuchiol B): 0.01121 and 0.02587 and 0.02406 and 0.03207 and 0.05973 and 0.04959 and 0.06567 and 0.01197 and 0.009584
- PR8 NS1 gene expression qPCR, ave (A/PR/8/34 virus [4]; MDCK PR8, NS1 mRNA, relative (DMSO about 1), average of #1-3 exp (n=9)): 0.02013
- PR8 NS1 gene expression qPCR, individual replicate (A/PR/8/34 virus [4]; MDCK PR8, NS1 mRNA, relative (DMSO about 1), replicates of #1-3 exp, listed as Cyclobakuchiol B): 0.008731 and 0.02017 and 0.01871 and 0.02102 and 0.03896 and 0.02064 and 0.02879 and 0.01388 and 0.01026
- PR8 PA gene expression qPCR, ave (A/PR/8/34 virus [4]; MDCK PR8, PA mRNA, relative (DMSO about 1), average of #1-3 exp (n=9)): 0.02293
- PR8 PA gene expression qPCR, individual replicate (A/PR/8/34 virus [4]; MDCK PR8, PA mRNA, relative (DMSO about 1), replicates of #1-3 exp, listed as Cyclobakuchiol B): 0.01293 and 0.01727 and 0.01489 and 0.01881 and 0.04016 and 0.03375 and 0.04497 and 0.01194 and 0.01167
- PR8 M2 gene expression qPCR, ave (A/PR/8/34 virus [4]; [9]): 0.0246
- PR8 PB1 gene expression qPCR, ave (A/PR/8/34 virus [4]; [9]): 0.01874
- PR8 PB2 gene expression qPCR, ave (A/PR/8/34 virus [4]; [9]): 0.02588
- PR8 M2 gene expression qPCR, individual replicates (A/PR/8/34 virus [4]; [10]): 0.01123 and 0.02732 and 0.01583 and 0.02218 and 0.04353 and 0.0372 and 0.04279 and 0.01139 and 0.009915
- PR8 PB1 gene expression qPCR, individual replicates (A/PR/8/34 virus [4]; [10]): 0.01046 and 0.01271 and 0.006702 and 0.01001 and 0.03897 and 0.03125 and 0.03696 and 0.01163 and 0.009984
- PR8 PB2 gene expression qPCR, individual replicates (A/PR/8/34 virus [4]; [10]): 0.01333 and 0.02659 and 0.01745 and 0.02138 and 0.03944 and 0.03441 and 0.05711 and 0.01315 and 0.01011
- Nrf2 activation (reporter assay) in contrast to DMSO (Nrf2; 12.5 μM, 24 h, MDCK cells): induced
- pNQO1-ARE-Luc NRF2 reporter assay, ave (Nrf2; 12.5uM, relative to DMSO trans+, ave of #1-3 exp): 1.319
- pNQO1-ARE-Luc NRF2 reporter assay, individual replicates (Nrf2; 12.5uM, relative to DMSO trans+, two values each of #1, #2, #3 exp, listed as Cyclobakuchiol B): 1.305 and 0.9752 and 1.512 and 1.4747 and 1.32 and 1.325
- relative mRNA level of Nqo1 compared with 5-treated cells [5]: significantly higher
- NQO1 Canis lupus mRNA, ave ([5]; virus + (PR8)): 1.527
- NQO1 Canis lupus mRNA, individual replicates ([5]; virus + (PR8)): 1.793 and 1.729 and 1.393 and 1.933 and 1.0008 and 1.009 and 1.147 and 1.683 and 2.053
- NQO1 Canis lupus mRNA, ave ([5]; virus -): 1.333
- NQO1 Canis lupus mRNA, individual replicates ([5]; virus -): 1.179 and 1.391 and 1.475 and 1.419 and 1.382 and 1.189 and 1.372 and 1.36 and 1.235
- relative mRNA level of Nqo1 compared with DMSO ([5]; without A/PR/8/34 virus, 12.5 μM, 24 h): significantly upregulated
- viral titer of culture media, ave (A/PR/8/34 virus [6]; 12h): 24444.4
- viral titer of culture media, ave (A/PR/8/34 virus [6]; 48h): 41111.1
- viral titer of culture media, ave (A/PR/8/34 virus [6]; 72h): 58888.9
- MDCK IFN-b mRNA, ave ([7]; virus +): 5.577
- MDCK IFN-b mRNA, individual replicates ([7]; virus +): 1.734 and 10.09 and 8.268 and 12.9454 and 4.2 and 4.194 and 4.358 and 1.919 and 2.486
- MDCK IFN-b mRNA, ave ([7]; virus -): 2.313
- MDCK IFN-b mRNA, individual replicates ([7]; virus -): 0.5929 and 0.6599 and 7.314 and 8.038 and 1.086 and 0.609 and 1.136 and 0.5738 and 0.8068
- percentage of influenza A NP-positive cells relative to DMSO (A/PR/8/34 virus [8]; A/PR/8/34, 3.1 μM, 24 h, Fig 4B): significantly reduced
- NP/DAPI (%) ave (A/PR/8/34 virus [8]; A/PR/8/34, 3.13 uM): 5.089%
- NP/DAPI (%) ave (A/PR/8/34 virus [8]; A/PR/8/34, 6.25 uM): 1.925%
- NP/DAPI (%) ave (A/PR/8/34 virus [8]; A/PR/8/34, 12.5 uM): 1.075%
- NP/DAPI (%) ave (A/PR/8/34 virus [8]; A/PR/8/34, 25 uM): 0.927%
- IC50 (A/PR/8/34 virus [8]; Influenza A virus, PR/8, MDCK, read-out: half maximal (50%) inhibitory concentration (IC50)): 2400 ± 600 nM
